From PubChem BioAssay AID1963964 (Molecular Pharmacology Branch, DTP, NCI, 2024)

System: 997726-040-R-J2-PDC tumor spheroids, viability
Assay: Anticancer human tumor 997726-040-R-J2-PDC patient-derived squamous cell lung carcinoma cell line growth inhibition [PI3K]
Details: spheroids with HUVEC and MSC; for IC50: curve of first compound; for viability, T/C: stronger effect = lower value
How it was run: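 Agents were dosed from a top concentration near clinical Cmax (otherwise 10 microM) in half-log decrements, alone or combined with PI3K inhibitors. The spheroids contain tumor cells plus endothelial (HUVEC) and MSC stroma; viability is measured.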

[1] = second compound 0.0316 µM, first compound 0.0316 µM
[2] = second compound 0.0316 µM, first compound 0.1 µM
[3] = second compound 0.0316 µM, first compound 0.316 µM
[4] = second compound 0.0316 µM, first compound 1 µM
[5] = second compound 0.0316 µM, first compound 3.16 µM
[6] = second compound 0.0316 µM, first compound 10 µM
[7] = second compound 0.1 µM, first compound 0.0316 µM
[8] = second compound 0.1 µM, first compound 0.1 µM
[9] = second compound 0.1 µM, first compound 0.316 µM
[10] = second compound 0.1 µM, first compound 1 µM
[11] = second compound 0.1 µM, first compound 3.16 µM
[12] = second compound 0.1 µM, first compound 10 µM
[13] = second compound 0.316 µM, first compound 0.0316 µM
[14] = second compound 0.316 µM, first compound 0.1 µM
[15] = second compound 0.316 µM, first compound 0.316 µM
[16] = second compound 0.316 µM, first compound 1 µM
[17] = second compound 0.316 µM, first compound 3.16 µM
[18] = second compound 0.316 µM, first compound 10 µM
[19] = second compound 1 µM, first compound 0.0316 µM
[20] = second compound 1 µM, first compound 0.1 µM
[21] = second compound 1 µM, first compound 0.316 µM
[22] = second compound 1 µM, first compound 1 µM
[23] = second compound 1 µM, first compound 3.16 µM
[24] = second compound 1 µM, first compound 10 µM
[25] = second compound 3.16 µM, first compound 0.0316 µM
[26] = second compound 3.16 µM, first compound 0.1 µM
[27] = second compound 3.16 µM, first compound 0.316 µM
[28] = second compound 3.16 µM, first compound 1 µM
[29] = second compound 10 µM, first compound 0.0316 µM
[30] = second compound 10 µM, first compound 0.1 µM
[31] = second compound 10 µM, first compound 0.316 µM
[32] = second compound 10 µM, first compound 1 µM
[33] = second compound 3.16 µM, first compound 3.16 µM
[34] = second compound 3.16 µM, first compound 10 µM
[35] = second compound 10 µM, first compound 3.16 µM
[36] = second compound 10 µM, first compound 10 µM
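Also: spheroids exposed to compounds for seven days before readout.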

SMILES: C#Cc1c(F)ccc2cc(O)cc(-c3ncc4c(N5CC6CCC(C5)N6)nc(OCC56CCCN5CC(F)C6)nc4c3F)c12 (stereo not drawn) + CC(Nc1ccc2c(c1)OCCn1cc(N3C(=O)OCC3C(F)F)nc1-2)C(N)=O
- IC50 (second compound 0.00316 µM): > 10 µM
- IC50 (second compound 0.01 µM): > 10 µM
- IC50 (second compound 0.0316 µM): 5.35 µM
- IC50 (second compound 0.1 µM): < 0.0316 µM
- IC50 (second compound 0.316 µM): < 0.0316 µM
- IC50 (second compound 1 µM): < 0.0316 µM
- viability, T/C (second compound 0.00316 µM, first compound 0.0316 µM): 89.2%
- viability, T/C (second compound 0.00316 µM, first compound 0.1 µM): 97.8%
- viability, T/C (second compound 0.00316 µM, first compound 0.316 µM): 81.8%
- viability, T/C (second compound 0.00316 µM, first compound 1 µM): 83.5%
- viability, T/C (second compound 0.00316 µM, first compound 3.16 µM): 75.3%
- viability, T/C (second compound 0.00316 µM, first compound 10 µM): 77.4%
- viability, T/C (second compound 0.01 µM, first compound 0.0316 µM): 79%
- viability, T/C (second compound 0.01 µM, first compound 0.1 µM): 83%
- viability, T/C (second compound 0.01 µM, first compound 0.316 µM): 79.2%
- viability, T/C (second compound 0.01 µM, first compound 1 µM): 75%
- viability, T/C (second compound 0.01 µM, first compound 3.16 µM): 68.5%
- viability, T/C (second compound 0.01 µM, first compound 10 µM): 55%
- viability, T/C [1]: 62.4%
- viability, T/C [2]: 65%
- viability, T/C [3]: 55.3%
- viability, T/C [4]: 60%
- viability, T/C [5]: 55.6%
- viability, T/C [6]: 44.2%
- viability, T/C [7]: 45.8%
- viability, T/C [8]: 43.4%
- viability, T/C [9]: 45.5%
- viability, T/C [10]: 44.9%
- viability, T/C [11]: 38.5%
- viability, T/C [12]: 52.9%
- viability, T/C [13]: 35.8%
- viability, T/C [14]: 36.1%
- viability, T/C [15]: 31.9%
- viability, T/C [16]: 31.5%
- viability, T/C [17]: 25.6%
- viability, T/C [18]: 24.8%
- viability, T/C [19]: 26.8%
- viability, T/C [20]: 30.1%
- viability, T/C [21]: 27.2%
- viability, T/C [22]: 26.6%
- viability, T/C [23]: 26.1%
- viability, T/C [24]: 25.1%

SMILES: CCN1CCN(Cc2ccc(Nc3ncc(F)c(-c4cc(F)c5nc(C)n(C(C)C)c5c4)n3)nc2)CC1 + CC(Nc1ncnc2nc[nH]c12)c1cc2cccc(Cl)c2c(=O)n1-c1ccccc1
- IC50 (second compound 0.0316 µM): > 1 µM
- IC50 (second compound 0.1 µM): > 1 µM
- IC50 (second compound 0.316 µM): > 1 µM
- IC50 (second compound 1 µM): > 1 µM
- IC50 (second compound 3.16 µM): > 1 µM
- IC50 (second compound 10 µM): 0.00526 µM
- viability, T/C (second compound 0.0316 µM, first compound 0.00316 µM): 95.3%
- viability, T/C (second compound 0.0316 µM, first compound 0.01 µM): 82.4%
- viability, T/C [1]: 75.6%
- viability, T/C [2]: 74.4%
- viability, T/C [3]: 67.2%
- viability, T/C [4]: 76.8%
- viability, T/C (second compound 0.1 µM, first compound 0.00316 µM): 81.7%
- viability, T/C (second compound 0.1 µM, first compound 0.01 µM): 91.1%
- viability, T/C [7]: 73.1%
- viability, T/C [8]: 68.3%
- viability, T/C [9]: 74.9%
- viability, T/C [10]: 82.7%
- viability, T/C (second compound 0.316 µM, first compound 0.00316 µM): 87.5%
- viability, T/C (second compound 0.316 µM, first compound 0.01 µM): 97.1%
- viability, T/C [13]: 73.2%
- viability, T/C [14]: 68.7%
- viability, T/C [15]: 69.8%
- viability, T/C [16]: 78.4%
- viability, T/C (second compound 1 µM, first compound 0.00316 µM): 79.1%
- viability, T/C (second compound 1 µM, first compound 0.01 µM): 78.4%
- viability, T/C [19]: 59.9%
- viability, T/C [20]: 61.5%
- viability, T/C [21]: 61.4%
- viability, T/C [22]: 68.9%
- viability, T/C (second compound 3.16 µM, first compound 0.00316 µM): 70.7%
- viability, T/C (second compound 3.16 µM, first compound 0.01 µM): 66.1%
- viability, T/C [25]: 56.3%
- viability, T/C [26]: 52.1%
- viability, T/C [27]: 60.1%
- viability, T/C [28]: 66%
- viability, T/C (second compound 10 µM, first compound 0.00316 µM): 51.5%
- viability, T/C (second compound 10 µM, first compound 0.01 µM): 50.9%
- viability, T/C [29]: 41.2%
- viability, T/C [30]: 40.9%
- viability, T/C [31]: 40.6%
- viability, T/C [32]: 47.1%

SMILES: CNC(=O)c1ccc(N2C(=S)N(c3ccc(C#N)c(C(F)(F)F)c3)C(=O)C2(C)C)cc1F + Cc1nc(NC(=O)N2CCCC2C(N)=O)sc1-c1ccnc(C(C)(C)C(F)(F)F)c1
- IC50 (second compound 0.0316 µM): > 10 µM
- IC50 (second compound 0.1 µM): > 10 µM
- IC50 (second compound 0.316 µM): > 10 µM
- IC50 (second compound 1 µM): < 0.0316 µM
- IC50 (second compound 3.16 µM): < 0.0316 µM
- IC50 (second compound 10 µM): < 0.0316 µM
- viability, T/C [1]: 74.4%
- viability, T/C [2]: 82.2%
- viability, T/C [3]: 80.9%
- viability, T/C [4]: 89.3%
- viability, T/C [5]: 81.9%
- viability, T/C [6]: 78.8%
- viability, T/C [7]: 74.5%
- viability, T/C [8]: 81.3%
- viability, T/C [9]: 73.5%
- viability, T/C [10]: 69.7%
- viability, T/C [11]: 70.5%
- viability, T/C [12]: 71.1%
- viability, T/C [13]: 51.3%
- viability, T/C [14]: 65%
- viability, T/C [15]: 54.5%
- viability, T/C [16]: 57.9%
- viability, T/C [17]: 48.9%
- viability, T/C [18]: 54.6%
- viability, T/C [19]: 41.7%
- viability, T/C [20]: 44.2%
- viability, T/C [21]: 37.5%
- viability, T/C [22]: 38.2%
- viability, T/C [23]: 39.9%
- viability, T/C [24]: 39%
- viability, T/C [25]: 32.7%
- viability, T/C [26]: 29.3%
- viability, T/C [27]: 26.9%
- viability, T/C [28]: 29.5%
- viability, T/C [33]: 30.4%
- viability, T/C [34]: 25.5%
- viability, T/C [29]: 16.1%
- viability, T/C [30]: 16.9%
- viability, T/C [31]: 12.6%
- viability, T/C [32]: 13.2%
- viability, T/C [35]: 11.9%
- viability, T/C [36]: 9.07%

SMILES: CCCS(=O)(=O)Nc1ccc(F)c(C(=O)c2c[nH]c3ncc(-c4ccc(Cl)cc4)cc23)c1F + Cc1nc(NC(=O)N2CCCC2C(N)=O)sc1-c1ccnc(C(C)(C)C(F)(F)F)c1
- IC50 (second compound 0.0316 µM): 6.89 µM
- IC50 (second compound 0.1 µM): 6 µM
- IC50 (second compound 0.316 µM): 4.66 µM
- IC50 (second compound 1 µM): 0.0316 µM
- IC50 (second compound 3.16 µM): < 0.0316 µM
- IC50 (second compound 10 µM): < 0.0316 µM
- viability, T/C [1]: 88.6%
- viability, T/C [2]: 93.5%
- viability, T/C [3]: 103%
- viability, T/C [4]: 122%
- viability, T/C [5]: 103%
- viability, T/C [6]: 25%
- viability, T/C [7]: 76.4%
- viability, T/C [8]: 80.5%
- viability, T/C [9]: 80.5%
- viability, T/C [10]: 95.7%
- viability, T/C [11]: 88.4%
- viability, T/C [12]: 22.6%
- viability, T/C [13]: 55.6%
- viability, T/C [14]: 62.3%
- viability, T/C [15]: 69.8%
- viability, T/C [16]: 63.7%
- viability, T/C [17]: 66.9%
- viability, T/C [18]: 23.3%
- viability, T/C [19]: 41.9%
- viability, T/C [20]: 40.5%
- viability, T/C [21]: 48.3%
- viability, T/C [22]: 57.1%
- viability, T/C [23]: 52%
- viability, T/C [24]: 18.1%
- viability, T/C [25]: 29.2%
- viability, T/C [26]: 31.4%
- viability, T/C [27]: 31.7%
- viability, T/C [28]: 34.7%
- viability, T/C [33]: 31.1%
- viability, T/C [34]: 17.9%
- viability, T/C [29]: 16.4%
- viability, T/C [30]: 16.9%
- viability, T/C [31]: 13.8%
- viability, T/C [32]: 17.1%
- viability, T/C [35]: 11.9%
- viability, T/C [36]: 7.69%
